Measured values reported in article PMC11989707, “Synthesis, Characterization, and Preliminary In Vitro Anticancer Activity of Zinc Complexes Containing Amino Acid-Derived Imidazolium-Based Dicarboxylate Ligands” (International Journal of Molecular Sciences, 2025).
Where two headings read alike, the source gives them in different places.

How the values were obtained:
MeWo (human melanoma) = experiment: Resazurin cell viability assay, melanoma; format: cell-based; conditions: for IC50: resazurin; for Selectivity Index MeWo: IC50 HaCaT / IC50 MeWo
Experimental: (§1) The cytotoxicity of complexes 2 was evaluated in vitro by determining the half inhibitory concentrations (IC50) against four human cell lines: wild-type BRAF melanoma (MeWo), lung adenocarcinoma (A549), bladder cancer (T24), and non-cancerous skin keratinocytes (HaCaT). […] The viability results, summarized in Table 1 (as μM concentrations) and illustrated in Figure 4, also include the values of the selectivity index (SI). The SI was calculated by dividing the IC50 value in the non-cancerous cells by that in the cancer cells. The higher the SI value, the higher the selectivity of the compound against cancer cells. This parameter also allows for a comparison of the selectivity of the investigated compound with the selectivity of the standard anticancer drug. For comparison, the cytotoxicity of two clinical anticancer drugs, carboplatin and gemcitabine, as well as imidazolium dicarboxylate precursor ligands (HL^R, 1) was evaluated under identical experimental conditions (see viability graphs in Figure 4 and Figure S7). […] Two noteworthy observations can be drawn from Table 1. […] Carboplatin is used for the treatment of ovarian cancer, lung cancer, bladder cancer, and head and neck cancer. Second, these zinc-based complexes were more cytotoxic to cancer cells than to non-malignant HaCaT cells, underscoring their potential therapeutic selectivity.
(§2) HaCaT cells (human keratinocytes) A549 (human lung adenocarcinoma), MeWo (human melanoma), and T24 (human urinary bladder carcinoma) were purchased from Cell Lines Service (CLS). The cells were maintained in Dulbecco’s Modified Eagle Medium (DMEM) supplemented with 10% fetal bovine serum and 1% penicillin/streptomycin. All cell lines were cultured at 37 °C and 5% CO2 with saturating humidity.
(§3) The resazurin assay is a commonly used colorimetric/fluorescent method to assess cell viability. This approach is based on the ability of living cells to convert the blue dye resazurin into the pink soluble resorufin product. The number of viable cells is directly correlated with the amount of resorufin generated. Between 3000 and 6000 cells per well were seeded in 96-well plates and allowed to grow for 24 h. […] The compounds were dissolved in sterile water to prepare a stock solution. Working solutions were obtained by serial dilution in the culture medium and were used immediately to treat the cells. Following this treatment period, the cells were rinsed once with phosphate buffered saline (PBS), and 150 μL of resazurin solution (20 µg/mL in medium) was added to each well. The plates were then incubated for 4–5 h at 37 °C with 5% CO2. Finally, absorbance was measured at 540 and 620 nm using a multiwell plate spectrophotometer (Imark Bio Rad Laboratories Inc., Hercules, CA, USA). The results were reported as percentages of cell viability compared to untreated controls. All data represent the mean ± standard error of the mean (SEM) of at least three independent experiments. The selectivity index (SI) values for each cancer cell line were determined by calculating the ratio of the IC50 value in the non-malignant HaCaT cell line to the IC50 value in the corresponding cancer cell line, based on data from each independent experiment.

[1] = system: HaCaT cells (human keratinocytes); experiment: Resazurin cell viability assay, non-malignant keratinocytes; format: cell-based; conditions: resazurin
Experimental: (§4) The cytotoxicity of complexes 2 was evaluated in vitro by determining the half inhibitory concentrations (IC50) against four human cell lines: wild-type BRAF melanoma (MeWo), lung adenocarcinoma (A549), bladder cancer (T24), and non-cancerous skin keratinocytes (HaCaT). The IC50 values were calculated from cell viability values obtained after 72 h of exposure of the drug to cells using the resazurin assay. The viability results, summarized in Table 1 (as μM concentrations) and illustrated in Figure 4, also include the values of the selectivity index (SI). The SI was calculated by dividing the IC50 value in the non-cancerous cells by that in the cancer cells. The higher the SI value, the higher the selectivity of the compound against cancer cells. This parameter also allows for a comparison of the selectivity of the investigated compound with the selectivity of the standard anticancer drug. For comparison, the cytotoxicity of two clinical anticancer drugs, carboplatin and gemcitabine, as well as imidazolium dicarboxylate precursor ligands (HL^R, 1) was evaluated under identical experimental conditions (see viability graphs in Figure 4 and Figure S7). […] Two noteworthy observations can be drawn from Table 1. […] Carboplatin is used for the treatment of ovarian cancer, lung cancer, bladder cancer, and head and neck cancer. Second, these zinc-based complexes were more cytotoxic to cancer cells than to non-malignant HaCaT cells, underscoring their potential therapeutic selectivity.
as §2, §3

[2] = system: A549 (human lung adenocarcinoma); experiment: Resazurin cell viability assay, lung adenocarcinoma; format: cell-based; conditions: for IC50: resazurin
Experimental: as §4, §2, §3

[3] = system: T24 (human urinary bladder carcinoma); experiment: Resazurin cell viability assay, bladder cancer; format: cell-based; conditions: for IC50: resazurin
Experimental: as §1, §2, §3

[4] = Resazurin cell viability assay, non-malignant keratinocytes; format: cell-based, human; conditions: human, HaCaT keratinocytes (non-malignant); HaCaT, highest concentrations tested, 72 h (Figure 4); read-out: viability of non-malignant cells
Experimental: as §4, §2, §3

[5] = Homo sapiens, MeWo, 96 h, mean ± SEM (Table S3)
[6] = Homo sapiens, HaCaT, 96 h, mean ± SEM (Table S3), read-out: IC50 HaCaT (Non-malignant keratinocyte)
[7] = Homo sapiens, A549, 96 h, mean ± SEM (Table S3)
[8] = IC50 HaCaT / IC50 A549, 96 h, mean ± SEM (Table S3)
[9] = Homo sapiens, 96 h, mean ± SEM (Table S3)
[10] = IC50 HaCaT / IC50 T24, 96 h, mean ± SEM (Table S3)
[11] = 96 h, mean ± SEM (Table S3), read-out: IC50 HaCaT (Non-malignant keratinocyte)
[12] = IC50 HaCaT / IC50 A549, 72 h, mean ± SEM
[13] = IC50 HaCaT / IC50 T24, 72 h, mean ± SEM

Question: With `O=c1[nH]cc(F)c(=O)[nH]1` [5-Fluorouracil] as the compound, how does the IC50 (MeWo (human melanoma); [5]) read?
Answer: 1300 nM

Question: And the “Selectivity Index MeWo” value (MeWo (human melanoma); 96 h, mean ± SEM (Table S3))?
Answer: 0.3 ± 0.0

Question: What about the IC50 [1, 6] of the same compound?
Answer: 400 nM

Question: What about the IC50 [2, 7] of the same compound?
Answer: 1900 ± 700 nM

Question: And the “Selectivity Index A549” value [2, 8]?
Answer: 0.3 ± 0.1

Question: What about the IC50 [3, 9] of the same compound?
Answer: 6300 ± 600 nM

Question: What about the “Selectivity Index T24” value [3, 10] of the same compound?
Answer: 0.1 ± 0.0

Question: With `N.N.O=C([O-])C1(C(=O)[O-])CCC1.[Pt+2]` [Carboplatin] as the compound, how does the IC50 (MeWo (human melanoma); 72 h, mean ± SEM) read?
Answer: 100000 ± 17400 nM

Question: And the IC50 (MeWo (human melanoma); 96 h, mean ± SEM (Table S3))?
Answer: 23000 ± 5500 nM

Question: And the “Selectivity Index MeWo” value (MeWo (human melanoma); 72 h, mean ± SEM)?
Answer: 0.4 ± 0.0

Question: What about the “Selectivity Index MeWo” value (MeWo (human melanoma); 96 h, mean ± SEM (Table S3)) of the same compound?
Answer: 0.6 ± 0.2

Question: And the IC50 ([1]; 72 h, mean ± SEM, monomer molecular weight used, read-out: IC50 HaCaT (Non-Malignant Keratinocyte))?
Answer: 35900 ± 3800 nM

Question: What about the IC50 [1, 11] of the same compound?
Answer: 11400 ± 1000 nM

Question: And the IC50 ([2]; 72 h, mean ± SEM)?
Answer: 42900 ± 1400 nM

Question: And the IC50 ([2]; 96 h, mean ± SEM (Table S3))?
Answer: 21100 ± 4000 nM

Question: What about the “Selectivity Index A549” value [2, 12] of the same compound?
Answer: 0.8 ± 0.1

Question: What about the “Selectivity Index A549” value [2, 8] of the same compound?
Answer: 0.6 ± 0.2

Question: And the IC50 ([3]; 72 h, mean ± SEM)?
Answer: 22100 ± 2600 nM

Question: And the IC50 ([3]; 96 h, mean ± SEM (Table S3))?
Answer: 7300 ± 1100 nM

Question: What about the “Selectivity Index T24” value [3, 13] of the same compound?
Answer: 1.7 ± 0.2

Question: What does the source list for `N.N.[Cl][Pt][Cl]` [Cisplatin]?
Answer: IC50 (MeWo (human melanoma); 96 h, mean ± SEM (Table S3)): 2200 ± 600 nM; Selectivity Index MeWo (MeWo (human melanoma); 96 h, mean ± SEM (Table S3)): 1.0 ± 0.0; IC50 [1, 11]: 2200 ± 500 nM; IC50 ([2]; 96 h, mean ± SEM (Table S3)): 3800 ± 100 nM; Selectivity Index A549 [2, 8]: 0.6 ± 0.1; IC50 ([3]; 96 h, mean ± SEM (Table S3)): 1600 ± 400 nM; Selectivity Index T24 [3, 10]: 1.3 ± 0.0

Question: What does the source list for `COc1cccc2c1C(=O)c1c(O)c3c(c(O)c1C2=O)C[C@@](O)(C(=O)CO)C[C@@H]3O[C@H]1C[C@H](N)[C@H](O)[C@H](C)O1` [Doxorubicin]?
Answer: IC50 (MeWo (human melanoma); [5]): 15.3 ± 3.6 nM; Selectivity Index MeWo (MeWo (human melanoma); 96 h, mean ± SEM (Table S3)): 0.6 ± 0.1; IC50 [1, 6]: 8.1 nM; IC50 [2, 7]: 38.4 ± 6.6 nM; Selectivity Index A549 [2, 8]: 0.2 ± 0.0; IC50 [3, 9]: 29.8 ± 2 nM; Selectivity Index T24 [3, 10]: 0.3 ± 0.0

Question: Which results are given for `Nc1ccn([C@@H]2O[C@H](CO)[C@@H](O)C2(F)F)c(=O)n1` [Gemcitabine]?
Answer: IC50 (MeWo (human melanoma); Homo sapiens, MeWo, 72 h, mean ± SEM): 7.3 ± 0.7 nM; IC50 (MeWo (human melanoma); [5]): 1.9 ± 1.5 nM; Selectivity Index MeWo (MeWo (human melanoma); 72 h, mean ± SEM): 3.3 ± 0.8; Selectivity Index MeWo (MeWo (human melanoma); 96 h, mean ± SEM (Table S3)): 5.1 ± 0.2; cell viability of melanoma cells (MeWo (human melanoma); MeWo, highest concentrations tested, 72 h (Figure 4)): ≥ 35%; IC50 ([1]; Homo sapiens, HaCaT, 72 h, mean ± SEM, read-out: IC50 HaCaT (Non-Malignant Keratinocyte)): 22.1 ± 3.1 nM; IC50 [1, 6]: 10.6 ± 4.3 nM; viability at 72 h [4]: 13%; IC50 ([2]; Homo sapiens, A549, 72 h, mean ± SEM): 5.6 ± 0.1 nM; IC50 [2, 7]: 1.9 ± 1.5 nM; Selectivity Index A549 [2, 12]: 4.0 ± 0.5; Selectivity Index A549 [2, 8]: 5.1 ± 0.3; IC50 ([3]; Homo sapiens, 72 h, mean ± SEM): 2.3 ± 0.3 nM; IC50 [3, 9]: 1.7 ± 1.5 nM; Selectivity Index T24 [3, 13]: 9.3 ± 0.4; Selectivity Index T24 [3, 10]: 6.5 ± 1.4

Question: For `CC(=O)O[C@H]1C(=O)[C@@]2(C)[C@H]([C@H](OC(=O)c3ccccc3)[C@]3(O)C[C@H](OC(=O)[C@H](O)[C@@H](NC(=O)c4ccccc4)c4ccccc4)C(C)=C1C3(C)C)[C@]1(OC(C)=O)CO[C@@H]1C[C@@H]2O` [Paclitaxel], which IC50 (MeWo (human melanoma); [5]) is on record?
Answer: 0.7 nM

Question: And the “Selectivity Index MeWo” value (MeWo (human melanoma); 96 h, mean ± SEM (Table S3))?
Answer: 0.5 ± 0.0

Question: What about the IC50 [1, 6] of the same compound?
Answer: 0.3 nM

Question: And the IC50 [2, 7]?
Answer: 3.5 ± 0.9 nM

Question: And the “Selectivity Index A549” value [2, 8]?
Answer: 0.1 ± 0.0

Question: And the IC50 [3, 9]?
Answer: 1.4 ± 0.3 nM

Question: What about the “Selectivity Index T24” value [3, 10] of the same compound?
Answer: 0.3 ± 0.1

Question: For `CCN(CC)CCNC(=O)c1c(C)[nH]c(/C=C2\C(=O)Nc3ccc(F)cc32)c1C` [Sunitinib], which IC50 (MeWo (human melanoma); [5]) is on record?
Answer: 900 ± 400 nM

Question: And the “Selectivity Index MeWo” value (MeWo (human melanoma); 96 h, mean ± SEM (Table S3))?
Answer: 1.5 ± 0.5

Question: What about the IC50 [1, 6] of the same compound?
Answer: 1000 ± 100 nM

Question: What about the IC50 [2, 7] of the same compound?
Answer: 1500 ± 700 nM

Question: What about the “Selectivity Index A549” value [2, 8] of the same compound?
Answer: 1.2 ± 0.6

Question: And the IC50 [3, 9]?
Answer: 1900 ± 1100 nM

Question: And the “Selectivity Index T24” value [3, 10]?
Answer: 1.5 ± 0.8
